Assay results published in PubChem BioAssay (NCI).
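All cell lines were grown in 96-well plates and treated with compound for 48 hours. TGI marks complete inhibition of growth.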

Legend:
Assay in all cases: growth of human tumour cells (NCI), 48 h
[1] = test system: 786-0 renal
[2] = test system: A498 renal
[3] = test system: A549 NSCLC
[4] = test system: ACHN renal
[5] = test system: BT-549 breast
[6] = test system: CAKI-1 renal
[7] = test system: CCRF-CEM leukemia
[8] = test system: COLO 205 colon
[9] = test system: DU-145 prostate
[10] = test system: EKVX NSCLC
[11] = test system: HCT-116 colon
[12] = test system: HCT-15 colon
[13] = test system: HL-60(TB) leukemia
[14] = test system: HOP-62 NSCLC
[15] = test system: HOP-92 NSCLC
[16] = test system: HS 578T breast
[17] = test system: HT29 colon
[18] = test system: IGROV1 ovarian
[19] = test system: K-562 leukemia
[20] = test system: KM12 colon
[21] = test system: M14 melanoma
[22] = test system: MALME-3M melanoma
[23] = test system: MCF7 breast
[24] = test system: MDA-MB-231 breast
[25] = test system: MDA-MB-435
[26] = test system: MDA-N
[27] = test system: MOLT-4 leukemia
[28] = test system: NCI-H226 lung
[29] = test system: NCI-H23 lung
[30] = test system: NCI-H460 lung
[31] = test system: NCI-H522 lung
[32] = test system: NCI/ADR-RES ovarian
[33] = test system: OVCAR-3 ovarian
[34] = test system: OVCAR-4 ovarian
[35] = test system: OVCAR-5 ovarian
[36] = test system: OVCAR-8 ovarian
[37] = test system: PC-3 prostate
[38] = test system: RPMI-8226 leukemia
[39] = test system: RXF 393 renal
[40] = test system: SF-268 CNS
[41] = test system: SF-295 CNS
[42] = test system: SF-539 CNS
[43] = test system: SK-MEL-2 melanoma
[44] = test system: SK-MEL-28 melanoma
[45] = test system: SK-MEL-5 melanoma
[46] = test system: SK-OV-3 ovarian
[47] = test system: SN12C renal
[48] = test system: SNB-19 CNS
[49] = test system: SNB-75 CNS
[50] = test system: SR leukemia
[51] = test system: SW-620 colon
[52] = test system: T-47D breast
[53] = test system: U251 CNS
[54] = test system: UACC-257 melanoma
[55] = test system: UACC-62 melanoma
[56] = test system: UO-31 renal

SMILES: Cc1[nH]c(-c2ccccc2)c(O)c1C(=O)OC12CC3CC(CC(C3)C1)C2
- TGI [1]: 27 µM
- TGI [2]: 35 µM
- TGI [3]: 25.7 µM
- TGI [4]: 29.7 µM
- TGI [5]: 31.8 µM
- TGI [6]: 35.4 µM
- TGI [7]: > 100 µM
- TGI [8]: 27 µM
- TGI [9]: 29.3 µM
- TGI [10]: 27 µM
- TGI [11]: 30.4 µM
- TGI [12]: 27.4 µM
- TGI [13]: > 100 µM
- TGI [14]: 28.1 µM
- TGI [15]: 34.8 µM
- TGI [16]: 25.9 µM
- TGI [17]: 17.2 µM
- TGI [18]: 27.4 µM
- TGI [19]: > 100 µM
- TGI [20]: 19.3 µM
- TGI [21]: 24.9 µM
- TGI [22]: 28 µM
- TGI [23]: 28 µM
- TGI [24]: 33.1 µM
- TGI [25]: 28.6 µM
- TGI [26]: 31.2 µM
- TGI [27]: 32.3 µM
- TGI [28]: 27.1 µM
- TGI [29]: 31.6 µM
- TGI [30]: 21.3 µM
- TGI [31]: 22.9 µM
- TGI [32]: 27.3 µM
- TGI [33]: 27.8 µM
- TGI [34]: 34.4 µM
- TGI [35]: 26.8 µM
- TGI [36]: 25.8 µM
- TGI [37]: 28.9 µM
- TGI [38]: > 100 µM
- TGI [39]: 20.1 µM
- TGI [40]: 27.2 µM
- TGI [41]: 14.1 µM
- TGI [42]: 23.7 µM
- TGI [43]: 31.3 µM
- TGI [44]: 27.8 µM
- TGI [45]: 28 µM
- TGI [46]: 28.1 µM
- TGI [47]: 30.1 µM
- TGI [48]: 28.3 µM
- TGI [49]: 23.1 µM
- TGI [50]: 44 µM
- TGI [51]: 29.7 µM
- TGI [52]: 29.5 µM
- TGI [53]: 28.2 µM
- TGI [54]: 31.2 µM
- TGI [55]: 32.8 µM
- TGI [56]: 32.6 µM
